Consider 80 compounds from the METLIN SMRT retention time set (Domingo-Almenara et al. 2019).

This data set is described as follows: gradient 5% acetonitrile 3 min, to 50% in 2 min, to 85% in 15 min, held 3 min, 100 µL/min. The conditions noted are these: column: Zorbax Extend-C18 2.1 x 50 mm; eluents: water / acetonitrile, 0.1% formic acid. In outline:
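Mixtures of ~100 pure standards were chromatographed on a Zorbax Extend-C18 column (2.1 × 50 mm, 1.8 μm) at 100 μL/min using water and acetonitrile, each with 0.1% formic acid. Detection used a quadrupole time-of-flight mass spectrometer in positive and negative ionization mode, and data collection spanned 3 months. Retention time was obtained from adduct peaks picked computationally and each checked manually.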
Compound `CCc1ccc(-c2nc(C3CC(=O)N(c4ccc(F)c(Cl)c4)C3)no2)cc1` (stereo not given) returned an RP-LC retention time of 1200 s. Regarding `CC(C)c1c(C2CCN(C(=O)C3(c4ccccc4)CC3)CC2)noc1N`, the RP-LC retention time is 813 s. The value for `COc1cccc(-n2c(N3CCC(C(=O)NCC(C)C)CC3)nc3ccsc3c2=O)c1` was 773 s.

For the compound `Cc1cc(C)cc(NS(=O)(=O)c2cc(-c3nc(C)cs3)sc2C)c1`, the RP-LC retention time amounted to 1080 s. The compound `CCOC(=O)COc1cc(-c2ccccc2)nc2ccc(NC(=O)C3CCC3)cc12` showed an RP-LC retention time of 780 s.

`COc1cccc(CC(=O)N2CCc3nc[nH]c3C2)c1` came in with an RP-LC retention time of 572 s. The result for `Cc1cc2c(c(=O)n(-c3ccccc3)c(=O)n2CC(=O)Nc2ccc(Cl)cc2)n1C` reads 885 s. The result for `COc1ccc(-n2nc3c(c2N)CSC3)cc1` reads 629 s. The value for `Cc1ccc(NC(=O)C2CCCN2S(=O)(=O)c2cc3c(cc2Cl)NC(=O)CO3)c(C)c1` (stereo not given) was 868 s; that for `O=c1ccc(-c2ccccc2)nn1Cc1nc(-c2ccc3c(c2)OCO3)no1` was 959 s; that for `N#CC1CC(c2ccccc2)Nc2cc(Cl)ccc2N1` (stereo not given) was 912 s. The compound `O=c1n(CC2CC2)nc2n1CCC(NS(=O)(=O)c1ccccc1)CC2` (stereo not given) displayed an RP-LC retention time of 706 s. The value for `Cc1cc(C)c(CN2CC(CNC(=O)N3CCCC3)C3(CCOCC3)C2)c(C)c1` (stereo not given) was 635 s; that for `O=C(NCCCN1CCOCC1)c1ccc(-c2ccc(N3CCCCC3)nn2)cc1` was 563 s.

In turn, `CS(=O)(=O)Nc1ccc(C2(C(=O)NCc3ccccc3Cl)CCCCC2)cc1` yielded an RP-LC retention time of 946 s. As for `Cc1sc(-n2c(C)c3c(C)nnc(C)c3c2C)nc1-c1ccc(Br)cc1`, the RP-LC retention time came out at 782 s. The value for `COc1cccc(-c2noc(C3CC(=O)N(c4cc(C)cc(C)c4)C3)n2)c1OC` (stereo not given) was 1020 s; that for `N#Cc1ccc(C(=O)NCC(=O)N2CCCc3ccccc32)c(F)c1` was 843 s. `COC(=O)CNC(=O)N1CCCN(c2nc3cc(F)ccc3n3cccc23)CC1` had an RP-LC retention time of 612 s. `Cc1ccc(C2Cn3nnc(-c4nc(-c5ccccc5Br)no4)c3CO2)c(C)c1` (stereo not given) had an RP-LC retention time of 1270 s.

Regarding `Cc1ccc(-c2nc3n(CC(=O)N4CCOCC4)c4c(c(=O)n3n2)CCC4)cc1`, the RP-LC retention time is 699 s. Compound `CCn1cc(S(=O)(=O)N2CC(c3nc(CCOCc4ccccc4)no3)C2)cn1` registered an RP-LC retention time of 856 s. The result for `Cn1c(=O)c2ccn(CC(=O)NCc3cccc(Cl)c3)c2n(C)c1=O` reads 703 s; that for `COC(=O)c1c(C)[nH]c(C(=O)N2CCC(CC(=O)N3CCOCC3)CC2)c1C`, 636 s. Regarding `CCn1cc(C2=CCN(S(=O)(=O)c3ccc(F)cc3)CC2)c2cccnc21`, the RP-LC retention time was found to be 1020 s. `COc1ccc(C(=O)N2CCCC2c2nc(-c3ccc(OC)cc3)no2)cc1` (stereo not given) showed an RP-LC retention time of 957 s. The value for `CCOc1ccc(-c2nc(-c3cccc(-c4ccn[nH]4)c3)no2)cc1OCC` was 1080 s. The result for `O=C(NCCc1csc(C2CCN(C(=O)C3CCCO3)CC2)n1)C1CCC1` (stereo not given) reads 626 s; that for `COc1ccc(-c2cn3c(CC(=O)Nc4nc5ccc(C)cc5s4)csc3n2)cc1OC`, 783 s. `CCCCn1cc(S(=O)(=O)Nc2ccccc2F)c2cccnc21` gave an RP-LC retention time of 922 s.

For `CN(C)S(=O)(=O)c1ccc(-c2nnc(C(=O)NCc3cccnc3)o2)cc1`, the RP-LC retention time was determined as 595 s.

With `N#Cc1ccc(-c2nc(-c3ccc4c(c3)ncn4CCN3CCCC3)no2)cc1`, the RP-LC retention time was determined as 638 s. The result for `Cc1cc(N2CCCC2)n2nc(-c3ccccc3C)nc2n1` reads 729 s; that for `O=C(CN1C(=O)COc2ccc(C(=O)N3CCCC3)cc21)Nc1ccccc1F`, 694 s; that for `CC(C)n1cnc2ccc(-c3noc(-c4ccccc4)n3)cc21`, 793 s. The value for `CCN1CCCn2cc(S(=O)(=O)Nc3ccc(F)c(Cl)c3)cc2C1=O` was 738 s; that for `COCCNC(=O)c1cc(-c2ccc(C)c(C)c2)[nH]c1C` was 772 s. The result for `CCc1ccccc1NC(=O)N(C)CCc1noc(COc2ccccc2)n1` reads 962 s. With `Cc1cccc(C(=O)N2CCC3(CC2)NC(=O)c2cc(C)ccc2N3C)c1`, the RP-LC retention time is 805 s. `CCc1ccc(-c2noc(CN3C(=O)C(C)Oc4ccccc43)n2)cc1` (stereo not given): the RP-LC retention time turned out to be 1160 s. The result for `COC(=O)C(C)NC(=O)NCc1cccn1Cc1ccc(Cl)cc1` (stereo not given) reads 832 s; that for `O=C(NCc1ccccn1)C1CCN(c2nc3ccc(-c4cncnc4)nc3s2)CC1`, 599 s; that for `CCc1nc(-c2csc(S(=O)(=O)N3CCCC(C(=O)Nc4cccc(C)c4)C3)c2)no1` (stereo not given), 983 s. The value for `CC(C)CNC(=O)N1CC(n2cc(C(=O)N(C)C)nn2)C1` was 609 s; that for `CCn1c(CCc2ccccc2NS(=O)(=O)c2c(C)n[nH]c2C)nc2ccccc21` was 630 s; that for `CCc1onc(C)c1C1CCCN1C(=O)c1c(Cl)cnn1CC` (stereo not given) was 773 s. The result for `Cc1ccccc1-n1c(=O)c2sccc2n(Cc2nc(-c3ccccc3)no2)c1=O` reads 1000 s; that for `CCNC(=O)N1CC(n2cc(C(=O)NCCC3=CCCCC3)nn2)C1`, 721 s. As for `CC(C)(C)C(=O)N1CCCC(C(=O)N2CCOCC2)C1` (stereo not given), the RP-LC retention time was 625 s. The result for `O=C(NCC1CC1)c1cn(-c2ncccc2-c2nc(-c3ccccc3)no2)cn1` reads 848 s; that for `CCOC(=O)c1cnc2nc(C)ccc2c1Nc1cc(OC)ccc1OC`, 709 s; that for `CCn1c(=O)c(C)nc2cc(-c3noc(-c4ccc(OC)cc4)n3)ccc21`, 942 s. The result for `O=C(Cn1nc2c(N3CCCCCC3)nccn2c1=O)NCc1ccc(F)cc1` reads 691 s; that for `Cc1ccc(S(=O)(=O)N2CCCC2C(=O)Nc2ccc(C)cc2C)cc1` (stereo not given), 969 s; that for `O=C(O)c1cc(NS(=O)(=O)c2cccc(F)c2)ccc1N1CCCC(CN2CCCC2)C1` (stereo not given), 594 s.

Compound `COCc1cc(=O)n(CC(=O)NCc2ccccc2)c(N)n1` showed an RP-LC retention time of 595 s. The value for `Cc1nncn1C1CCN(S(=O)(=O)c2ccc(C(C)C)cc2)CC1` was 674 s; that for `O=C(c1cccnn1)N1CC(F)(F)C[C@H]1c1nnc(-c2ccccc2)o1` was 746 s. The result for `Cc1nc(-c2cc(S(=O)(=O)N3CCN(c4cccc(C)c4C)CC3)c(C)s2)cs1` reads 1370 s; that for `Cc1noc(C2CN(C(=O)Nc3ccc(C)c(F)c3)CC23CCOCC3)n1` (stereo not given), 776 s. The value for `CCOC(=O)c1ccc(NC(=O)Cc2csc3nc(-c4ccc(C)c(C)c4)cn23)cc1` was 922 s. As to `Cc1nc(NC2CCCCC2)sc1C(=O)Nc1cccc(F)c1`, the RP-LC retention time was determined as 872 s. The value for `CCOc1ccc(S(=O)(=O)Nc2cc(-c3cn4cccc(C)c4n3)ccc2C)cc1` was 722 s. For `CCCN1C(=O)c2n[nH]c(-c3ccco3)c2C1c1ccc(O)c(OC)c1` (stereo not given), the RP-LC retention time stood at 699 s. Compound `CS(=O)(=O)N1C[C@H]2CCN(Cc3ccc(F)cc3Cl)C[C@H]21` showed an RP-LC retention time of 597 s. The value for `N#CCCN1CCN(C2=NC(=O)/C(=C\c3cccs3)S2)CC1` was 611 s.

As for `CSc1ccc(-c2nc3cnccn3c2Nc2c(C)cccc2C)cc1`, the RP-LC retention time worked out at 966 s. `COc1ccc(F)cc1S(=O)(=O)N1CCC(C(=O)Nc2cc(C)on2)CC1` showed an RP-LC retention time of 745 s. As for `Cc1nn(CC(=O)N2CCN(C)CC2)c(=O)c2nc(-c3ccccc3)sc12`, the RP-LC retention time came to 616 s. For the compound `CCN(CC)C(=O)c1ccc2c(c1)N(CC(=O)Nc1ccc3c(c1)OCO3)C(=O)C1CCCCN21` (stereo not given), the RP-LC retention time came to 808 s. For `CCNC(=O)C1CCCN(c2nc3ncn(CC(=O)Nc4ccc(CC)cc4)c(=O)c3s2)C1` (stereo not given), the RP-LC retention time is 661 s. `CCNC(=O)c1cn(-c2ccc(SCC(=O)Nc3ccc(Cl)cc3F)nn2)cn1`: the RP-LC retention time was found to be 702 s. The value for `COC[C@@H]1CN(c2cnccn2)C[C@H]1C(=O)NC(C)C` was 572 s.

On to `COc1ccccc1-c1nc2cnccn2c1NCCC(=O)N1CCc2ccccc21`, for which the RP-LC retention time stood at 772 s.

`CNC(=O)c1cc(C)nc2c(C)cccc12`: the RP-LC retention time is 570 s. In turn, `COc1cc(=O)n2c(c1C(=O)Nc1cccc(Br)c1)CCCC2` registered an RP-LC retention time of 760 s.

Consider `CC(CCc1ccccc1)NC(=O)C1CCN(S(=O)(=O)c2ccc3c(c2)CCCC(=O)N3)CC1` (stereo not given), for which the RP-LC retention time was 809 s. On to `CC1CCN(C(=O)CS(=O)Cc2cnn(-c3ccccc3)c2-n2cccc2)CC1` (stereo not given), for which the RP-LC retention time turned out to be 828 s.

The compound `CCn1ccc2cc(S(=O)(=O)N3CCCC(C(=O)NCCCc4ccccc4)C3)ccc21` (stereo not given) came in with an RP-LC retention time of 1000 s.

`CCCN(C(=O)C1CCCN(c2ncnc3c2nc2n3CCCCC2)C1)c1ccc(F)cc1` (stereo not given) showed an RP-LC retention time of 930 s.
